Results from ChEMBL document CHEMBL1649071, “4-[18F]fluoroglutamic acid (BAY 85-8050), a new amino acid radiotracer for PET imaging of tumors: synthesis and in vitro characterization” (J Med Chem, 2011).

Key:
Assay type in all cases: ADME, cell-based; call rule not given here
HT-29 [1] = test: Drug uptake in human HT-29 cells at 250 kBq after 20 mins by gamma-counting; details: ht-29, 20 min
A549 [2] = test: Drug uptake in human A549 cells at 250 kBq after 20 mins by gamma-counting; details: a549, 20 min
A549 [3] = test: Drug uptake in human A549 cells at 250 kBq by gamma-counting; details: TDE = time-dependent effect
HT-29 [4] = test: Drug uptake in human HT-29 cells at 250 kBq after 20 mins by gamma-counting in presence of L-glutamic acid; details: ht-29, 20 min
A549 [5] = test: Drug uptake in human A549 cells at 250 kBq after 30 mins by gamma-counting in presence of L-glutamic acid; details: a549, 0.5 h
A549 [6] = test: Drug uptake in human A549 cells at 250 kBq after 30 mins by gamma-counting; details: a549, 0.5 h
A549 [7] = test: Drug uptake in human A549 cells at 250 kBq after 30 mins by gamma-counting in presence of D-glucose; details: a549, 0.5 h
HT-29 [8] = test: Drug uptake in human HT-29 cells at 250 kBq after 20 mins by gamma-counting in presence of D-glucose; details: ht-29, 20 min

`N[C@@H](CC([18F])C(=O)O)C(=O)O` (stereo not given in full) was tested, and the Drug uptake (HT-29 [1]) was 4%, the Drug uptake (A549 [2]) was 9.3% and the Drug uptake (A549 [3]) was “tde”. For the same compound, the Drug uptake (HT-29 [4]) was “Not Active”, the Drug uptake (A549 [5]) was “Not Active” and the Drug uptake (A549 [6]) was 12%.

With `N[C@@H](C[C@H](F)C(=O)O)C(=O)O` the Drug uptake (A549 [6]) was “Active”.

`N[C@@H](C[C@@H](F)C(=O)O)C(=O)O` was tested, and the Drug uptake (A549 [6]) was “Active”.

In the case of `OC[C@H]1O[C@@H](O)[C@H]([18F])[C@@H](O)[C@@H]1O` [FLUDEOXYGLUCOSE-F18], the Drug uptake (A549 [7]) was “Not Active” and the Drug uptake (HT-29 [8]) was “Not Active”.
